Reference: patent publication US10913933B2, “Bioengineered liver constructs and methods relating thereto” (Wake Forest University Health Sciences, priority 2013, dated 2021)

Tested on: bioengineered liver organoids
Details: human, 48 h
Description: For hepatocyte functional analysis, culture medium was collected after the three week incubation. The media was stored at −80° C. until it was used for analysis. For analyzing albumin synthesis, albumin ELISA assay (Bethyl Laboratories Inc.) was carried out on each samples in triplicates. The albumin concentrations were normalized per mg of DNA. The media was also analyzed in the same fashion for urea secretion using a Quantichrome™ Urea Assay Kit (BioAssay Systems, Inc.). […] After 48 hours, media samples were collected and analyzed by mass spectrometry (FIGS. 3C and 3D), and compared with standards of individual metabolites (FIGS. 3A and 3B).
In a second experiment, the liver organoids were prepared as described above in Example 1, Section A using LPC seeding and maintenance media. Alternatively, the organoids can be prepared using minimal LPC medium or hFLP medium instead. After seeding with hFLPCs, the discs were cultured for 3 weeks, with harvesting of cells at 1 week and 3 weeks for immunohistochemical and molecular analysis. Assays assessing albumin and urea synthesis and IHC analyses were performed as described above. Gene expression analyses were performed by RT-PCR after harvesting the organoids. Drug metabolism activity in the organoids was assessed after 1 week and 3 weeks of culturing. […] After 3, 6, 12, and 24 hours, media samples were collected and analyzed by mass spectrometry.

- Phase-1 metabolites found in media: 7-hydroxycoumarin
Compound: CCOc1ccc2ccc(=O)oc2c1 [7-ethoxycoumarin]
